Common to all, as to type: cell-based
In assay [1] the target is carboxylic acid reductase (CAR) (Nocardia iowensis, UniProt Q6RKB1). The assay can be described thus: whole-cell aldehyde formation. Conditions: E. coli RARE cells co-expressing SFP; MMV medium, 5 mM, 24 °C.
Assay [2] deals with T1, 5-Hydroxymethylfurfural (HMF) oxidase (HMFO) (Methylovorus sp. MP688, UniProt E4QP00).
T1 construct: gene MPQ_0130; flavoprotein, pBAD vector, expressed in E. coli K-12 MG1655 (RARE); no mutations told
T1 sequence (E4QP00 1-531): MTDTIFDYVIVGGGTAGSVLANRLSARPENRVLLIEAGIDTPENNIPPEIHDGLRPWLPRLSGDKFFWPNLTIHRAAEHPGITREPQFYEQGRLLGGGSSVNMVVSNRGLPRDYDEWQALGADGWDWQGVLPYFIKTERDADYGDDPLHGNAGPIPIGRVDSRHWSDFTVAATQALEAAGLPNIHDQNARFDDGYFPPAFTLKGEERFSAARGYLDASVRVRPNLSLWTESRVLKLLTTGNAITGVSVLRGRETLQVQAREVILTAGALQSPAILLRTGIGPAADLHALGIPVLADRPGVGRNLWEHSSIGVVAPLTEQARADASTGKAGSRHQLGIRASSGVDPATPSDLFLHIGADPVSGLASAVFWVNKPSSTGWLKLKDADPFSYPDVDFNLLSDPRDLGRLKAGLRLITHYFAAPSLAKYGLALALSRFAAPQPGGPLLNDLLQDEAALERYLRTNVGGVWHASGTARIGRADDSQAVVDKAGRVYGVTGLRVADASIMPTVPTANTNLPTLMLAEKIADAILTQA
The assay can be described thus: whole-cell alcohol oxidation. To be noted: O2 as oxidant; E. coli RARE cells, 5 mM, 2 h.

The target of assay [3] is T2, feruloyl CoA synthase (FCS, Atfcs) (Amycolatopsis thermoflava, UniProt Z9FW54HPU9).
T2 construct: pETDuet-1, co-expressed with enoyl-CoA hydratase/aldolase Atech of the same strain in E. coli K-12 MG1655 (RARE)
The assay can be described thus: whole-cell aldehyde formation. Conditions: E. coli RARE cells co-expressing ECH hydratase/aldolase, which completes the conversion to aldehyde; MMV medium, 5 mM, 24 °C.

Chain of carboxylic acid reductase (CAR) (Q6RKB1 2-1174): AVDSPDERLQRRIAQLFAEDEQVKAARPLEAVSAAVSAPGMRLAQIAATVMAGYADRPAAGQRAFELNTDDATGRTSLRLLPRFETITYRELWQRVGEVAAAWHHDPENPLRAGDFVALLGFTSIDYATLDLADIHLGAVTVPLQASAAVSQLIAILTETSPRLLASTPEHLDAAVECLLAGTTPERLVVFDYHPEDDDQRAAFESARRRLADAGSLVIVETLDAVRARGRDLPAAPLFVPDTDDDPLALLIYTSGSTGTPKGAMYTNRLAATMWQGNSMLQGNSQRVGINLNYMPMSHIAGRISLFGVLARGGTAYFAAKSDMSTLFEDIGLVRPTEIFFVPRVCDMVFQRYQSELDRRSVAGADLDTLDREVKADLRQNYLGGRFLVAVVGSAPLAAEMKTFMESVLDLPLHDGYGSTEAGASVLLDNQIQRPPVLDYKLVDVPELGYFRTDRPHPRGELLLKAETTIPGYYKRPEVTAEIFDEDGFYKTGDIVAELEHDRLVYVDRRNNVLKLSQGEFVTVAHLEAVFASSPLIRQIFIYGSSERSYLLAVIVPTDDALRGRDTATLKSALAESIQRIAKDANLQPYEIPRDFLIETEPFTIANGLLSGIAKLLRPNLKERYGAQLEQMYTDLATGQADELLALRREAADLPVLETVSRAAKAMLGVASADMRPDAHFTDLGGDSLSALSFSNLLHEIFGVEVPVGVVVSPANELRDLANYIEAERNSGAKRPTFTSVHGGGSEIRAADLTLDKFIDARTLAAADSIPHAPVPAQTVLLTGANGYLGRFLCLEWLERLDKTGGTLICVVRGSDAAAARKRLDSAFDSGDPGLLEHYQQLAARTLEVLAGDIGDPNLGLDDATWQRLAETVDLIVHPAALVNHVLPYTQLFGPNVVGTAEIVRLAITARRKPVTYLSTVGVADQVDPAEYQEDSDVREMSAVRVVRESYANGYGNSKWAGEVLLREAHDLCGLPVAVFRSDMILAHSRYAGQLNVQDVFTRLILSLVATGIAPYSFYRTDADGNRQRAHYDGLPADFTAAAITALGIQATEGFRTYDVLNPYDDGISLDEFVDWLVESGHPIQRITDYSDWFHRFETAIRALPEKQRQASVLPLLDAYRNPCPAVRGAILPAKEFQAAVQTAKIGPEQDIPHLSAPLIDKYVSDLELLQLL

Regarding `O=C(O)c1ccc(O)cc1` [4 a, p-hydroxybenzoic acid], in assay [1], the whole-cell aldehyde formation result is “CAR‐SFP/E. coli RARE, from p‐hydroxybenzoic acid, produced a good yield of p‐hydroxybenzaldehyde”.
On the same count and under the same terms, in the case of `O=C(O)c1ccccc1` [4 b, benzoic acid] it was “reduction of benzoic acid to benzaldehyde catalysed by CAR‐SFP/E. coli RARE”.
Regarding `OCc1ccc(O)cc1` [6 a, p-hydroxybenzyl alcohol], the whole-cell alcohol oxidation result in assay [2] is “whole cell HMFO catalysed oxidation of benzyl alcohol and p‐hydroxybenzyl alcohol”.
The same measure, in the same setting: in the case of `OCc1ccccc1` [6 b, benzyl alcohol] it was “whole cell HMFO catalysed oxidation of benzyl alcohol and p‐hydroxybenzyl alcohol”.
Take `O=C(O)/C=C/c1ccc(O)cc1` [compound 5, p-coumaric acid]: the whole-cell aldehyde formation result in assay [3] is recorded as “FCS‐ECH/E. coli RARE, starting from p‐coumaric acid”.

(Values after PMC10100225, “In Vivo Biocatalytic Cascades Featuring an Artificial‐Enzyme‐Catalysed New‐to‐Nature Reaction” (Angewandte Chemie (International Ed. in English), 2022).)
